# Assay results taken from PubChem BioAssay (NCI).
#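 These data come from cells grown in 96-well plates and exposed to compound for 48 hours at five concentrations. Abbreviation: GI50, concentration required for 50% inhibition of growth. TGI denotes the concentration required for complete inhibition of growth.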
# Assays:
# Test in all cases: DTP human tumour cell line panel, 48 h
# 786-0 renal = system: 786-0 renal
# A498 renal = system: A498 renal
# A549 NSCLC = system: A549 NSCLC
# ACHN renal = system: ACHN renal
# BT-549 breast = system: BT-549 breast
# CAKI-1 renal = system: CAKI-1 renal
# CCRF-CEM leukemia = system: CCRF-CEM leukemia
# COLO 205 colon = system: COLO 205 colon
# DU-145 prostate = system: DU-145 prostate
# EKVX NSCLC = system: EKVX NSCLC
# HCC-2998 colon = system: HCC-2998 colon
# HCT-116 colon = system: HCT-116 colon
# HCT-15 colon = system: HCT-15 colon
# HL-60(TB) leukemia = system: HL-60(TB) leukemia
# HOP-62 NSCLC = system: HOP-62 NSCLC
# HOP-92 NSCLC = system: HOP-92 NSCLC
# HS 578T breast = system: HS 578T breast
# HT29 colon = system: HT29 colon
# IGROV1 ovarian = system: IGROV1 ovarian
# K-562 leukemia = system: K-562 leukemia
# KM12 colon = system: KM12 colon
# LOX IMVI melanoma = system: LOX IMVI melanoma
# M14 melanoma = system: M14 melanoma
# MALME-3M melanoma = system: MALME-3M melanoma
# MCF7 breast = system: MCF7 breast
# MDA-MB-231 breast = system: MDA-MB-231 breast
# MDA-MB-435 = system: MDA-MB-435
# MOLT-4 leukemia = system: MOLT-4 leukemia
# NCI-H226 lung = system: NCI-H226 lung
# NCI-H23 lung = system: NCI-H23 lung
# NCI-H460 lung = system: NCI-H460 lung
# NCI-H522 lung = system: NCI-H522 lung
# NCI/ADR-RES ovarian = system: NCI/ADR-RES ovarian
# OVCAR-3 ovarian = system: OVCAR-3 ovarian
# OVCAR-4 ovarian = system: OVCAR-4 ovarian
# OVCAR-5 ovarian = system: OVCAR-5 ovarian
# OVCAR-8 ovarian = system: OVCAR-8 ovarian
# PC-3 prostate = system: PC-3 prostate
# RPMI-8226 leukemia = system: RPMI-8226 leukemia
# RXF 393 renal = system: RXF 393 renal
# SF-268 CNS = system: SF-268 CNS
# SF-295 CNS = system: SF-295 CNS
# SF-539 CNS = system: SF-539 CNS
# SK-MEL-2 melanoma = system: SK-MEL-2 melanoma
# SK-MEL-28 melanoma = system: SK-MEL-28 melanoma
# SK-MEL-5 melanoma = system: SK-MEL-5 melanoma
# SK-OV-3 ovarian = system: SK-OV-3 ovarian
# SN12C renal = system: SN12C renal
# SNB-19 CNS = system: SNB-19 CNS
# SNB-75 CNS = system: SNB-75 CNS
# SR leukemia = system: SR leukemia
# SW-620 colon = system: SW-620 colon
# T-47D breast = system: T-47D breast
# TK-10 renal = system: TK-10 renal
# U251 CNS = system: U251 CNS
# UACC-257 melanoma = system: UACC-257 melanoma
# UACC-62 melanoma = system: UACC-62 melanoma
# UO-31 renal = system: UO-31 renal
smiles,measurement,setting,value
O=C1/C(=C/c2ccc(O)c(O)c2)COc2ccc(-c3ccccc3)cc21,GI50,786-0 renal,1.94 µM
same,TGI,786-0 renal,5.55 µM
same,GI50,A498 renal,2.2 µM
same,TGI,A498 renal,7.71 µM
same,GI50,A549 NSCLC,3.16 µM
same,TGI,A549 NSCLC,18.1 µM
same,GI50,ACHN renal,1.53 µM
same,TGI,ACHN renal,3.22 µM
same,GI50,BT-549 breast,2.37 µM
same,TGI,BT-549 breast,10.6 µM
same,GI50,CAKI-1 renal,3.66 µM
same,TGI,CAKI-1 renal,33.2 µM
same,GI50,CCRF-CEM leukemia,0.329 µM
same,GI50,COLO 205 colon,0.732 µM
same,TGI,COLO 205 colon,2.15 µM
same,GI50,DU-145 prostate,1.77 µM
same,TGI,DU-145 prostate,4.48 µM
same,GI50,EKVX NSCLC,5.39 µM
same,TGI,EKVX NSCLC,18.1 µM
same,GI50,HCC-2998 colon,1.49 µM
same,TGI,HCC-2998 colon,2.98 µM
same,GI50,HCT-116 colon,1.23 µM
same,TGI,HCT-116 colon,2.65 µM
same,GI50,HCT-15 colon,0.697 µM
same,TGI,HCT-15 colon,2.24 µM
same,GI50,HL-60(TB) leukemia,0.435 µM
same,TGI,HL-60(TB) leukemia,4.47 µM
same,GI50,HOP-62 NSCLC,3.55 µM
same,TGI,HOP-62 NSCLC,11.6 µM
same,GI50,HOP-92 NSCLC,1.74 µM
same,TGI,HOP-92 NSCLC,8.59 µM
same,GI50,HS 578T breast,3.21 µM
same,TGI,HS 578T breast,13.9 µM
same,GI50,HT29 colon,1.5 µM
same,TGI,HT29 colon,3.16 µM
same,GI50,IGROV1 ovarian,1.39 µM
same,TGI,IGROV1 ovarian,6.41 µM
same,GI50,K-562 leukemia,1.85 µM
same,TGI,K-562 leukemia,8.31 µM
same,GI50,KM12 colon,1.42 µM
same,TGI,KM12 colon,3.39 µM
same,GI50,LOX IMVI melanoma,1.43 µM
same,TGI,LOX IMVI melanoma,2.84 µM
same,GI50,M14 melanoma,2.02 µM
same,TGI,M14 melanoma,5.28 µM
same,GI50,MALME-3M melanoma,1.7 µM
same,TGI,MALME-3M melanoma,5.55 µM
same,GI50,MCF7 breast,0.666 µM
same,TGI,MCF7 breast,5.06 µM
same,GI50,MDA-MB-231 breast,2.26 µM
same,TGI,MDA-MB-231 breast,8.47 µM
same,GI50,MDA-MB-435,1.17 µM
same,TGI,MDA-MB-435,3.48 µM
same,GI50,MOLT-4 leukemia,0.531 µM
same,TGI,MOLT-4 leukemia,4.73 µM
same,GI50,NCI-H226 lung,4.15 µM
same,TGI,NCI-H226 lung,32.8 µM
same,GI50,NCI-H23 lung,2.28 µM
same,TGI,NCI-H23 lung,10.9 µM
same,GI50,NCI-H460 lung,1.99 µM
same,TGI,NCI-H460 lung,5.67 µM
same,GI50,NCI-H522 lung,0.334 µM
same,TGI,NCI-H522 lung,1.16 µM
same,GI50,NCI/ADR-RES ovarian,2.24 µM
same,TGI,NCI/ADR-RES ovarian,> 26.8 µM
same,GI50,OVCAR-3 ovarian,0.874 µM
same,TGI,OVCAR-3 ovarian,3.48 µM
same,GI50,OVCAR-4 ovarian,2.2 µM
same,TGI,OVCAR-4 ovarian,10.2 µM
same,GI50,OVCAR-5 ovarian,3.71 µM
same,TGI,OVCAR-5 ovarian,16.1 µM
same,GI50,OVCAR-8 ovarian,3.29 µM
same,TGI,OVCAR-8 ovarian,22 µM
same,GI50,PC-3 prostate,1.8 µM
same,TGI,PC-3 prostate,10.7 µM
same,GI50,RPMI-8226 leukemia,0.187 µM
same,TGI,RPMI-8226 leukemia,0.588 µM
same,GI50,RXF 393 renal,1.71 µM
same,TGI,RXF 393 renal,3.86 µM
same,GI50,SF-268 CNS,2.11 µM
same,TGI,SF-268 CNS,7.33 µM
same,GI50,SF-295 CNS,2.84 µM
same,TGI,SF-295 CNS,13 µM
same,GI50,SF-539 CNS,1.91 µM
same,TGI,SF-539 CNS,3.89 µM
same,GI50,SK-MEL-2 melanoma,3.64 µM
same,TGI,SK-MEL-2 melanoma,10.7 µM
same,GI50,SK-MEL-28 melanoma,1.6 µM
same,TGI,SK-MEL-28 melanoma,3.07 µM
same,GI50,SK-MEL-5 melanoma,1.57 µM
same,TGI,SK-MEL-5 melanoma,3.77 µM
same,GI50,SK-OV-3 ovarian,4.77 µM
same,TGI,SK-OV-3 ovarian,37.7 µM
same,GI50,SN12C renal,2.47 µM
same,TGI,SN12C renal,10.6 µM
same,GI50,SNB-19 CNS,3.51 µM
same,TGI,SNB-19 CNS,14.7 µM
same,GI50,SNB-75 CNS,2.98 µM
same,TGI,SNB-75 CNS,11.6 µM
same,GI50,SR leukemia,0.616 µM
same,GI50,SW-620 colon,0.875 µM
same,TGI,SW-620 colon,2.46 µM
same,GI50,T-47D breast,0.959 µM
same,TGI,T-47D breast,3.61 µM
same,GI50,TK-10 renal,1.73 µM
same,TGI,TK-10 renal,6.91 µM
same,GI50,U251 CNS,1.45 µM
same,TGI,U251 CNS,3.38 µM
same,GI50,UACC-257 melanoma,3.89 µM
same,TGI,UACC-257 melanoma,16.9 µM
same,GI50,UACC-62 melanoma,2.01 µM
same,TGI,UACC-62 melanoma,5.78 µM
same,GI50,UO-31 renal,1.22 µM
same,TGI,UO-31 renal,2.93 µM
O=CC1C(Cl)=Nc2nc3ccccc3n2C1c1ccc([N+](=O)[O-])cc1 (configuration not stated),TGI,786-0 renal,> 100 µM
same,TGI,A498 renal,47.4 µM
same,TGI,A549 NSCLC,> 100 µM
same,TGI,BT-549 breast,2.58 µM
same,TGI,CAKI-1 renal,7.65 µM
same,TGI,CCRF-CEM leukemia,> 100 µM
same,TGI,COLO 205 colon,> 100 µM
same,TGI,DU-145 prostate,32.4 µM
same,TGI,EKVX NSCLC,53.5 µM
same,TGI,HCC-2998 colon,49.4 µM
same,TGI,HCT-116 colon,> 100 µM
same,TGI,HL-60(TB) leukemia,20.2 µM
same,TGI,HOP-62 NSCLC,> 100 µM
same,TGI,HOP-92 NSCLC,20.7 µM
same,TGI,HS 578T breast,> 100 µM
same,TGI,IGROV1 ovarian,26 µM
same,TGI,K-562 leukemia,78.5 µM
same,TGI,KM12 colon,82.9 µM
same,TGI,M14 melanoma,> 100 µM
same,TGI,MALME-3M melanoma,31.6 µM
same,TGI,MCF7 breast,67.9 µM
same,TGI,MDA-MB-231 breast,45.4 µM
same,TGI,MDA-MB-435,27.8 µM
same,TGI,MOLT-4 leukemia,6.29 µM
same,TGI,NCI-H226 lung,9.27 µM
same,TGI,NCI-H23 lung,57.1 µM
same,TGI,NCI-H460 lung,94 µM
same,TGI,NCI-H522 lung,12.8 µM
same,TGI,NCI/ADR-RES ovarian,> 100 µM
same,TGI,OVCAR-3 ovarian,> 100 µM
same,TGI,OVCAR-4 ovarian,30.9 µM
same,TGI,OVCAR-5 ovarian,> 100 µM
same,TGI,OVCAR-8 ovarian,27.7 µM
same,TGI,PC-3 prostate,> 100 µM
same,TGI,RPMI-8226 leukemia,> 100 µM
same,TGI,RXF 393 renal,7.15 µM
same,TGI,SF-268 CNS,62.2 µM
same,TGI,SF-295 CNS,50.7 µM
same,TGI,SF-539 CNS,> 100 µM
same,TGI,SK-MEL-2 melanoma,21.4 µM
same,TGI,SK-MEL-28 melanoma,5.09 µM
same,TGI,SK-MEL-5 melanoma,37.9 µM
same,TGI,SN12C renal,51.4 µM
same,TGI,SNB-19 CNS,36.3 µM
same,TGI,SNB-75 CNS,5.28 µM
same,TGI,SR leukemia,5.97 µM
same,TGI,SW-620 colon,> 100 µM
same,TGI,T-47D breast,4.19 µM
same,TGI,TK-10 renal,16.1 µM
same,TGI,U251 CNS,44.5 µM
same,TGI,UACC-257 melanoma,31.5 µM
same,TGI,UACC-62 melanoma,35.6 µM
same,TGI,UO-31 renal,14.8 µM
